Assays:
[1] = 4.0% w/v concentration; cited from earlier work
human coronavirus = settings: therapeutic concentration (~1.7 pH), in vitro suspension tests
[2] = aerosolized, pH range of 1.5 to 2.0
[3] = system: HepG2 (human liver) cell culture; assay: Modified cytotoxicity protocol: residual anions of neutralized acid formulations; assay type: cell-based; settings: for Cytotoxicity of residual anions, conclusion in words: pH 1.5
Description: Purpose: A modified cytotoxicity protocol was developed focusing on the cytotoxicity of the residual anions of the acid formulations. Twenty different acids formulations were tested, each in the range of 1.95 to 1.5 pH. Each formulation was diluted with distilled water to hydronium concentrations of 11.22 mM (pH 1.95), […] (pH 1.85), 19.95 mM (pH 1.70), 25.12 mM (pH 1.60), and 31.62 mM (pH 1.50). It was then titrated with NaOH to 7.4 pH and applied to HepG2 (human liver) cell culture in triplicate replicates.

[4] = system: Staphylococcus aureus ATCC 6538; assay: Modified ASTM E2315 test of low pH therapeutic with AMPs, acid neutralized after one minute; assay type: cell-based
Source text: Since the reaction speed of the two different MOAs are different, a modified test protocol was developed, which is summarized below. • a. […] Heretofore, it has been believed that AMPs are unstable in low pH environments. Mixture of dry powder immediately prior to use is believed to address concerns regarding minimization of in vitro stability. • b. The prepared AMP solution was then mixed with the bacteria containing media. After one minute the acid solution was neutralized. This simulates the short antimicrobial period for the elevated proton concentration in vivo. The bacteria population was measured to determine efficacy after one minute. • c. The AMPs retained in the solution are not expected to stop their antimicrobial activity after acid neutralization, so a second bacteria population measurement was made after 24 hours. [table]

## OB(O)O [Boric acid]
[1]
  pH: 4.8-5.0

## O=S(=O)(O)O [sulfuric acid]
Human coronavirus
  Time to inactivating and/or reducing concentration of human coronavirus: ≤ 1 min
Mouse fibroblast cells
  Cytotoxicity: no cytotoxicity
[2]
  Harm to host respiratory tissues in vivo: not harmful

## Hydroxyacetic + HCl [Example 15]
[3]
  % Viability @ pH 1.9: 117%

## Hydroxyacetic +. Sulfuric [Example 8]
[3]
  % Viability @ pH 1.9: 72.7%

## Isoacorbic + sulfuric [Example 17]
[3]
  % Viability @ pH 1.9: 89.3%

## Isoascorbic + HCl [Example 18]
[3]
  Cytotoxicity of residual anions, conclusion in words: least toxic
  % Viability @ pH 1.9: 104%

## LL-37 [Example 38, reference compound]
[4]; bacteria population after one minute, then acid neutralized, no soiling, single-replicant
  1-min Efficacy (log): 4.15 log
[4]; comparison of Table 3 examples
  Efficacy on S. aureus, conclusion in words: highly effective
[4]; second bacteria population measurement after 24 hours, acid neutralized after one minute
  24-hour Efficacy (log): >6.45 log

## Sulfuric [Example 3]
[3]
  Cytotoxicity of residual anions, conclusion in words: least toxic
  % Viability @ pH 1.9: 140%

Source: patent publication US20240000899A1, “THERAPEUTIC USEFUL AGAINST ANTIMICROBIAL RESISTANT AGENTS” (priority 2022, published 2024)
